Experimental data reported in patent publication US20260152487A1 (Sitryx Therapeutics Limited, priority 2021, published 2026).
pEC50: −log10 of the molar value. Where two headings read alike, the source gives them in different places.

Target: T1, recombinant human PKM2 (Homo sapiens, UniProt P14618)
T1 construct: His (N); purchased R&D Systems
Test: Human PKM2 activation assay (Kinase-Glo Plus luminescent detection of generated ATP)
Format: biochemical
Details: for Emax: read-out: hPKM2 Emax; for pEC50: 4-parameter logistic fit
Description: Compound activation of recombinant human PKM2 pyruvate kinase activity was determined by biochemical assay. N-terminal His-tagged hPKM2 was sourced from R&D Systems and its substrates phosphoenolpyruvate (PEP) and ADP from Sigma-Aldrich and 2Bscientific Ltd, respectively. The Kinase-Glo® Plus luminescence assay was from Promega. All other reagents were from Sigma-Aldrich. Test Compounds were prepared as 10 mM DMSO stocks and dilution series prepared in DMSO for direct dilution into Assay Buffer comprising 50 mM imidazole, 50 mM KCl, 7 mM MgCl2, 0.01% Tween20, 0.05% BSA (pH 7.2).
Human PKM2 was diluted into Assay Buffer comprising 50 mM imidazole, 50 mM KCl, 7 mM MgCl2, 0.01% Tween20, 0.05% BSA (pH 7.2) to a final concentration of […]. Enzyme-Assay Buffer mix was dispensed into a 384-well shallow-well white-walled plate (PerkinElmer) and Test Compounds added by acoustic dispense (Echo®, Labcyte Inc.).
After 60 minutes' incubation on an orbital shaker (300 rpm, 26° C.), enzyme activity was quantified by the luminescent detection of generated ATP. Kinase-Glo® Plus reagent was added to each well and the plates incubated for a further 15 minutes on an orbital shaker in the dark (300 rpm, 26° C.) before luminescence measurement on a plate reader (PHERAstar® FSX, BMG Labtech).
Percentage activation was calculated by normalising […] signals to plate LOW (DMSO vehicle) and HIGH (5 μM TEPP-46) controls. EC50 and Emax values were determined from 4-parameter logistic fits of compound concentration-response curves.

[1] = percentage activation normalised to DMSO vehicle (LOW) and 5 μM TEPP-46 (HIGH)
[2] = recombinant human PKM2 activation, read-out: hPKM2 EC50

T1 sequence (P14618 2-531 limits assumed): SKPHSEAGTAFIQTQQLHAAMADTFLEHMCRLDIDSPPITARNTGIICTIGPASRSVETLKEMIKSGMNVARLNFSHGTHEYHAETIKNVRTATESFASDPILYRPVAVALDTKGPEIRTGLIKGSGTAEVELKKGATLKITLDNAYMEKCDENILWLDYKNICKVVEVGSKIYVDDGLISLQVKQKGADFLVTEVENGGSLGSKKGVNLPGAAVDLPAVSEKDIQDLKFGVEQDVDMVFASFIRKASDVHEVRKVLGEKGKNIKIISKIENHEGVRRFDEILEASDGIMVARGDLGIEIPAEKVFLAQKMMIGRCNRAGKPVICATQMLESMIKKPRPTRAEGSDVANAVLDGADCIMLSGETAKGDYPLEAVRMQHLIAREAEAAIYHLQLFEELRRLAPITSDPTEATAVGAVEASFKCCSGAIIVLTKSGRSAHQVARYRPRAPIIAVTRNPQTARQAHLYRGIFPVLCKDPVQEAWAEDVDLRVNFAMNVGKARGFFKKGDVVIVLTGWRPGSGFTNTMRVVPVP

Compound	Emax [1] [%]	pEC50 [2]	pEC50 (hPKM2 EC50, recombinant human PKM2 activation)	Emax [%]
COc1ccc(Cn2ncc3cc(S(=O)(=O)c4cccc(Cl)c4)ccc3c2=O)cn1 [Example 154, 6-((3-chlorophenyl)sulfonyl)-2-((6-methoxypyridin-3-yl)methyl)phthalazin-1(2H)-one]	93.7	6.85		
COc1ccc(Cn2ncc3cc(S(=O)(=O)c4cccc(F)c4)ccc3c2=O)cn1 [Example 157, 6-((3-fluorophenyl)sulfonyl)-2-((6-methoxypyridin-3-yl)methyl)phthalazin-1(2H)-one]	87.5	6.91		
COc1ccc(Cn2ncc3cc(S(=O)(=O)c4ccn(C)n4)ccc3c2=O)cn1 [Example 158, 2-((6-methoxypyridin-3-yl)methyl)-6-((1-methyl-1H-pyrazol-3-yl)sulfonyl)phthalazin-1(2H)-one]	85.4	6.73		
COc1ccc(Cn2ncc3cc(S(=O)(=O)c4cc(C)ccn4)ccc3c2=O)cn1 [Example 159, 2-((6-methoxypyridin-3-yl)methyl)-6-(4-methylpyridin-2-ylsulfonyl)phthalazin-1(2H)-one]	72.4	6.30		
COc1ccc(Cn2ncc3cc(S(=O)(=O)c4cccc(OC)n4)ccc3c2=O)cn1 [Example 160, 6-(6-methoxypyridin-3-yl)methyl)phthalazin-1(2H)-onemethoxypyridin-2-ylsulfonyl)-2-((6-]	83.3	6.62		
COc1ccc(Cn2ncc3cc(S(=O)(=O)c4cccc(C(N)=O)c4)ccc3c2=O)cn1 [Example 161, 3-(2-((6-methoxypyridin-3-yl)methyl)-1-oxo-1,2-dihydrophthalazin-6-ylsulfonyl)benzamide]	56.8	6.68		
COc1ccc(Cn2ncc3cc(S(=O)(=O)c4ccccc4F)ccc3c2=O)cn1 [Example 162, 6-(2-fluorophenylsulfonyl)-2-((6-methoxypyridin-3-yl)methyl)phthalazin-1(2H)-one]	99.5	7.08		
COc1ccc(Cn2ncc3cc(S(=O)(=O)c4ccccc4Cl)ccc3c2=O)cn1 [Example 163, 6-(2-chlorophenylsulfonyl)-2-((6-methoxypyridin-3-yl)methyl)phthalazin-1(2H)-one]	77.3	6.87		
COc1ccc(Cn2ncc3cc(S(=O)(=O)c4ccccc4OC)ccc3c2=O)cn1 [Example 164, 6-(2-methoxyphenylsulfonyl)-2-((6-methoxypyridin-3-yl)methyl)phthalazin-1(2H)-one]	107	6.84		
COc1ccnc(S(=O)(=O)c2ccc3c(=O)n(Cc4ccc(OC)nc4)ncc3c2)c1 [Example 165, 6-(4-methoxypyridin-2-ylsulfonyl)-2-((6-methoxypyridin-3-yl)methyl)phthalazin-1(2H)-one]	77.5	6.34		
COc1ccc(Cn2ncc3cc(S(=O)(=O)c4ccc5c(c4)CC(C)(C)O5)ccc3c2=O)cn1 [Example 166, 6-((2,2-dimethyl-2,3-dihydrobenzofuran-5-yl)sulfonyl)-2-((6-methoxypyridin-3-yl)methyl)phthalazin-1(2H)-one]	99.4	6.88		
COc1ccc(Cn2ncc3cc(S(=O)(=O)c4ccc5c(c4)CC(C)O5)ccc3c2=O)cn1 (centres unmarked) [Example 167, 2-((6-methoxypyridin-3-yl)methyl)-6-((2-methyl-2,3-dihydrobenzofuran-5-yl)sulfonyl)phthalazin-1(2H)-one]	95.5	7.18		
COc1ccc(Cn2ncc3cc(S(=O)(=O)c4cccc(C)n4)ccc3c2=O)cn1 [Example 169, 2-((6-methoxypyridin-3-yl)methyl)-6-(6-methylpyridin-2-ylsulfonyl)phthalazin-1(2H)-one]	83	6.73		
COc1ccc(S(=O)(=O)c2ccc3c(=O)n(Cc4ccc(OC)nc4)ncc3c2)nc1 [Example 172, 6-(5-methoxypyridin-2-ylsulfonyl)-2-((6-methoxypyridin-3-yl)methyl)phthalazin-1(2H)-one]	84.1	7.21		
COc1ccc(Cn2ncc3cc(S(=O)(=O)c4csc(C)n4)ccc3c2=O)cn1 [Example 174, 2-((6-methoxypyridin-3-yl)methyl)-6-(2-methylthiazol-4-ylsulfonyl)phthalazin-1(2H)-one]	94.2	6.97		
COc1ccc(Cn2ncc3cc(S(=O)(=O)c4cccc5sc(C)nc45)ccc3c2=O)cn1 [Example 176, 2-((6-methoxypyridin-3-yl)methyl)-6-(2-methylbenzo[d]thiazol-4-ylsulfonyl)phthalazin-1(2H)-one]	95.8	6.34		
COc1ccc(Cn2ncc3cc(S(=O)(=O)c4cnc(OC)cn4)ccc3c2=O)cn1 [Example 177, 6-(5-methoxypyrazin-2-ylsulfonyl)-2-((6-methoxypyridin-3-yl)methyl)phthalazin-1(2H)-one]	79	6.68		
COc1ccc(Cn2ncc3cc(S(=O)(=O)c4ccn(C(F)F)n4)ccc3c2=O)cn1 [Example 179, 6-(1-(difluoromethyl)-1H-pyrazol-3-ylsulfonyl)-2-((6-methoxypyridin-3-yl)methyl)phthalazin-1(2H)-one]	89.7	7.25		
COc1ccc(Cn2ncc3cc(S(=O)(=O)c4cnc5c(c4)CCO5)ccc3c2=O)cn1 [Example 183, 6-((2,3-dihydrofuro[2,3-b]pyridin-5-yl)sulfonyl)-2-((6-methoxypyridin-3-yl)methyl)phthalazin-1(2H)-one]	79.7	7.33		
COc1ccc(Cn2ncc3cc(S(=O)(=O)c4cn[nH]c4)ccc3c2=O)cn1 [Example 197, 6-((1H-pyrazol-4-yl)sulfonyl)-2-((6-methoxypyridin-3-yl)methyl)phthalazin-1(2H)-one]			6.82	94.5

More lines, in order of rising pEC50 [2], values ahead:

Emax [1] [%]	pEC50 [2]	Compound	pEC50 (hPKM2 EC50, recombinant human PKM2 activation)	Emax [%]
66	6.13	COc1ccc(Cn2ncc3cc(S(=O)(=O)c4cn(C)c(C)n4)ccc3c2=O)cn1 [Example 185, 6-(1,2-dimethyl-1H-imidazol-4-ylsulfonyl)-2-((6-methoxypyridin-3-yl)methyl)phthalazin-1(2H)-one]		
59.6	6.20	COc1ccc(Cn2ncc3cc(S(=O)(=O)c4ccn5ccnc5c4)ccc3c2=O)cn1 [Example 184, 6-(imidazo[1,2-a]pyridin-7-ylsulfonyl)-2-((6-methoxypyridin-3-yl)methyl)phthalazin-1(2H)-one]		
102	6.65	COc1ccc(Cn2ncc3cc(S(=O)(=O)c4cnn(C)c4C)ccc3c2=O)cn1 [Example 190, 6-(1,5-dimethyl-1H-pyrazol-4-ylsulfonyl)-2-((6-methoxypyridin-3-yl)methyl)phthalazin-1(2H)-one]		
71.6	6.74	COc1ccc(Cn2ncc3cc(S(=O)(=O)c4ccc(Cl)cc4)ccc3c2=O)cn1 [Example 155, 6-((4-chlorophenyl)sulfonyl)-2-((6-methoxypyridin-3-yl)methyl)phthalazin-1(2H)-one]		
67.2	6.82	COc1ccc(Cn2ncc3cc(S(=O)(=O)c4cnc(C(F)F)s4)ccc3c2=O)cn1 [Example 173, 6-(2-(difluoromethyl)thiazol-5-ylsulfonyl)-2-((6-methoxypyridin-3-yl)methyl)phthalazin-1(2H)-one]		
96	6.99	COc1ccc(Cn2ncc3cc(S(=O)(=O)c4cnn(C)c4)ccc3c2=O)cn1 [Example 168, 2-((6-methoxypyridin-3-yl)methyl)-6-((1-methyl-1H-pyrazol-4-yl)sulfonyl)phthalazin-1(2H)-one]		
88.7	7.04	COc1ccc(Cn2ncc3cc(S(=O)(=O)c4ccc5c(c4)OC(F)(F)O5)ccc3c2=O)cn1 [Example 156]		
101	7.09	COc1ccc(Cn2ncc3cc(S(=O)(=O)c4cccc(OC(F)F)c4)ccc3c2=O)cn1 [Example 170, 6-(3-(difluoromethoxy)phenylsulfonyl)-2-((6-methoxypyridin-3-yl)methyl)phthalazin-1(2H)-one]		
82.3	7.11	COc1ccc(Cn2ncc3cc(S(=O)(=O)c4ccc(C)s4)ccc3c2=O)cn1 [Example 171, 2-((6-methoxypyridin-3-yl)methyl)-6-(5-methylthiophen-2-ylsulfonyl)phthalazin-1(2H)-one]		
97.2	7.15	COc1ccc(Cn2ncc3cc(S(=O)(=O)c4ccc(OC)nc4)ccc3c2=O)cn1 [Example 175, 2-((6-methoxypyridin-3-yl)methyl)-6-(6-methoxypyridin-3-ylsulfonyl)phthalazin-1(2H)-one]		
80.2	7.82	COc1ccc(Cn2ncc3cc(S(=O)(=O)c4ccc5c(c4)OCCO5)ccc3c2=O)cn1 [Example 182, 6-((2,3-dihydrobenzo[b][1,4]dioxin-6-yl)sulfonyl)-2-((6-methoxypyridin-3-yl)methyl)phthalazin-1(2H)-one]		
